According to ChEMBL document CHEMBL5260799, “Pterocarpan scaffold: A natural lead molecule with diverse pharmacological properties” (Eur J Med Chem, 2017):
Converted amounts (≈) assume the structure as drawn.

Tests used:
NCI-H187 [1] = assay: Cytotoxicity against human NCI-H187 cells assessed as reduction in cell viability by resazurin microplate assay; assay type: functional, cell-based
Staphylococcus aureus [2] = assay: Antibacterial activity against methicillin-resistant Staphylococcus aureus ATCC 25923 assessed as bacterial growth inhibition by broth dilution method; assay type: functional, organism-based
Staphylococcus aureus [3] = assay: Antibacterial activity against Staphylococcus aureus ATCC 25923 assessed as bacterial growth inhibition by broth dilution method; assay type: functional, organism-based
KB [4] = assay: Cytotoxicity against human KB cells assessed as reduction in cell viability by resazurin microplate assay; assay type: functional, cell-based
MCF7 = assay: Cytotoxicity against human MCF7 cells assessed as reduction in cell viability by resazurin microplate assay; assay type: functional, cell-based
NCI-H187 [5] = assay: Cytotoxicity against human NCI-H187 cells assessed as reduction in cell viability by colorimetric assay; assay type: functional, cell-based
Streptococcus agalactiae = assay: Antibacterial activity against Streptococcus agalactiae ATCC 12386 assessed as reduction in bacterial growth by microbroth dilution method; assay type: functional
KB [6] = assay: Cytotoxicity against human KB cells assessed as reduction in cell viability by colorimetric assay; assay type: functional, cell-based
Enterococcus [7] = assay: Antibacterial activity against vancomycin-resistant Enterococcus GCMT1 assessed as reduction in bacterial growth incubated for 24 hrs by microbroth dilution method; assay type: functional
Plasmodium falciparum [8] = assay: Antiplasmodial activity against Plasmodium falciparum K1 assessed as reduction in parasite growth by fluorescence based assay; assay type: functional, organism-based
[9] = tested on: Mycobacterium tuberculosis; assay: Antimycobacterial activity against Mycobacterium tuberculosis H37Rv assessed as inhibition of bacterial growth by Microplate alamar blue assay; assay type: functional, organism-based
Enterococcus [10] = assay: Antibacterial activity against vancomycin-resistant Enterococcus GCMT3 assessed as reduction in bacterial growth incubated for 24 hrs by microbroth dilution method; assay type: functional
Breast carcinoma cell = assay: Cytotoxicity against human Breast carcinoma cell assessed as reduction in cell viability by colorimetric assay; assay type: functional, cell-based
Candida albicans [11] = assay: Antifungal activity against multidrug-resistant Candida albicans ATCC 10231 assessed as reduction in fungal growth by NCCLS method; assay type: functional
Plasmodium falciparum [12] = assay: Antiplasmodial activity against Plasmodium falciparum W2 assessed as reduction in plasmodial growth after 48 hrs by fluorescence based analysis; assay type: functional, organism-based; conditions: W2, 48 h
Candida albicans [13] = assay: Antifungal activity against Candida albicans ATCC 10231 assessed as reduction in fungal growth by NCCLS method; assay type: functional
Staphylococcus aureus [14] = assay: Antibacterial activity against methicillin-resistant Staphylococcus aureus ATCC 4330 assessed as bacterial growth inhibition; assay type: functional
Candida albicans [15] = assay: Antifungal activity against Candida albicans SC5314 assessed as reduction in fungal growth incubated for 24 hrs by serial dilution method; assay type: functional
Plasmodium falciparum [16] = assay: Antiplasmodial activity against Plasmodium falciparum K1 assessed as reduction in parasitic growth by fluorescence based analysis; assay type: functional, organism-based
[17] = target: Sterol O-acyltransferase 2 (Homo sapiens) (UniProt O75908); assay: Inhibition of human ACAT2 at 100 uM
Maltase-glucoamylase = Maltase-glucoamylase (Homo sapiens, UniProt O43451); assay: Inhibition of human Alpha-glucosidase
[18] = target: Sterol O-acyltransferase 1 (Homo sapiens) (UniProt P35610); assay: Inhibition of human ACAT1 at 100 uM
[19] = tested on: Mycobacterium tuberculosis; assay: Antimycobacterial activity against Mycobacterium tuberculosis H37Ra assessed as reduction in bacterial growth by MABA method; assay type: functional

Sequence of Sterol O-acyltransferase 2 (Homo sapiens) (O75908 whole entry): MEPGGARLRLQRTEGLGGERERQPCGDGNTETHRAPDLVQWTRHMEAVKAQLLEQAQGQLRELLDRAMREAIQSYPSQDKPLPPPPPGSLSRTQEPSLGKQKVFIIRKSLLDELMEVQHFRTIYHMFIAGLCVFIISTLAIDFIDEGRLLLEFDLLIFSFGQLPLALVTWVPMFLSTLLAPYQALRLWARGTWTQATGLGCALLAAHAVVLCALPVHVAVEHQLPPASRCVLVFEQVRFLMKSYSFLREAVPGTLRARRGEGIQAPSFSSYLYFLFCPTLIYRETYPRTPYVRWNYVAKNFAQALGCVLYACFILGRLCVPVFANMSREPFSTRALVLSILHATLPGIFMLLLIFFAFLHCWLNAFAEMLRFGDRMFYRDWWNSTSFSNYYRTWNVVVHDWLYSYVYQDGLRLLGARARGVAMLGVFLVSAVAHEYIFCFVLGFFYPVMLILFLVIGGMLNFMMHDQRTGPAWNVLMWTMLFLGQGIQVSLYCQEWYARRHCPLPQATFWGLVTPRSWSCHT
Sequence of Maltase-glucoamylase (O43451 whole entry): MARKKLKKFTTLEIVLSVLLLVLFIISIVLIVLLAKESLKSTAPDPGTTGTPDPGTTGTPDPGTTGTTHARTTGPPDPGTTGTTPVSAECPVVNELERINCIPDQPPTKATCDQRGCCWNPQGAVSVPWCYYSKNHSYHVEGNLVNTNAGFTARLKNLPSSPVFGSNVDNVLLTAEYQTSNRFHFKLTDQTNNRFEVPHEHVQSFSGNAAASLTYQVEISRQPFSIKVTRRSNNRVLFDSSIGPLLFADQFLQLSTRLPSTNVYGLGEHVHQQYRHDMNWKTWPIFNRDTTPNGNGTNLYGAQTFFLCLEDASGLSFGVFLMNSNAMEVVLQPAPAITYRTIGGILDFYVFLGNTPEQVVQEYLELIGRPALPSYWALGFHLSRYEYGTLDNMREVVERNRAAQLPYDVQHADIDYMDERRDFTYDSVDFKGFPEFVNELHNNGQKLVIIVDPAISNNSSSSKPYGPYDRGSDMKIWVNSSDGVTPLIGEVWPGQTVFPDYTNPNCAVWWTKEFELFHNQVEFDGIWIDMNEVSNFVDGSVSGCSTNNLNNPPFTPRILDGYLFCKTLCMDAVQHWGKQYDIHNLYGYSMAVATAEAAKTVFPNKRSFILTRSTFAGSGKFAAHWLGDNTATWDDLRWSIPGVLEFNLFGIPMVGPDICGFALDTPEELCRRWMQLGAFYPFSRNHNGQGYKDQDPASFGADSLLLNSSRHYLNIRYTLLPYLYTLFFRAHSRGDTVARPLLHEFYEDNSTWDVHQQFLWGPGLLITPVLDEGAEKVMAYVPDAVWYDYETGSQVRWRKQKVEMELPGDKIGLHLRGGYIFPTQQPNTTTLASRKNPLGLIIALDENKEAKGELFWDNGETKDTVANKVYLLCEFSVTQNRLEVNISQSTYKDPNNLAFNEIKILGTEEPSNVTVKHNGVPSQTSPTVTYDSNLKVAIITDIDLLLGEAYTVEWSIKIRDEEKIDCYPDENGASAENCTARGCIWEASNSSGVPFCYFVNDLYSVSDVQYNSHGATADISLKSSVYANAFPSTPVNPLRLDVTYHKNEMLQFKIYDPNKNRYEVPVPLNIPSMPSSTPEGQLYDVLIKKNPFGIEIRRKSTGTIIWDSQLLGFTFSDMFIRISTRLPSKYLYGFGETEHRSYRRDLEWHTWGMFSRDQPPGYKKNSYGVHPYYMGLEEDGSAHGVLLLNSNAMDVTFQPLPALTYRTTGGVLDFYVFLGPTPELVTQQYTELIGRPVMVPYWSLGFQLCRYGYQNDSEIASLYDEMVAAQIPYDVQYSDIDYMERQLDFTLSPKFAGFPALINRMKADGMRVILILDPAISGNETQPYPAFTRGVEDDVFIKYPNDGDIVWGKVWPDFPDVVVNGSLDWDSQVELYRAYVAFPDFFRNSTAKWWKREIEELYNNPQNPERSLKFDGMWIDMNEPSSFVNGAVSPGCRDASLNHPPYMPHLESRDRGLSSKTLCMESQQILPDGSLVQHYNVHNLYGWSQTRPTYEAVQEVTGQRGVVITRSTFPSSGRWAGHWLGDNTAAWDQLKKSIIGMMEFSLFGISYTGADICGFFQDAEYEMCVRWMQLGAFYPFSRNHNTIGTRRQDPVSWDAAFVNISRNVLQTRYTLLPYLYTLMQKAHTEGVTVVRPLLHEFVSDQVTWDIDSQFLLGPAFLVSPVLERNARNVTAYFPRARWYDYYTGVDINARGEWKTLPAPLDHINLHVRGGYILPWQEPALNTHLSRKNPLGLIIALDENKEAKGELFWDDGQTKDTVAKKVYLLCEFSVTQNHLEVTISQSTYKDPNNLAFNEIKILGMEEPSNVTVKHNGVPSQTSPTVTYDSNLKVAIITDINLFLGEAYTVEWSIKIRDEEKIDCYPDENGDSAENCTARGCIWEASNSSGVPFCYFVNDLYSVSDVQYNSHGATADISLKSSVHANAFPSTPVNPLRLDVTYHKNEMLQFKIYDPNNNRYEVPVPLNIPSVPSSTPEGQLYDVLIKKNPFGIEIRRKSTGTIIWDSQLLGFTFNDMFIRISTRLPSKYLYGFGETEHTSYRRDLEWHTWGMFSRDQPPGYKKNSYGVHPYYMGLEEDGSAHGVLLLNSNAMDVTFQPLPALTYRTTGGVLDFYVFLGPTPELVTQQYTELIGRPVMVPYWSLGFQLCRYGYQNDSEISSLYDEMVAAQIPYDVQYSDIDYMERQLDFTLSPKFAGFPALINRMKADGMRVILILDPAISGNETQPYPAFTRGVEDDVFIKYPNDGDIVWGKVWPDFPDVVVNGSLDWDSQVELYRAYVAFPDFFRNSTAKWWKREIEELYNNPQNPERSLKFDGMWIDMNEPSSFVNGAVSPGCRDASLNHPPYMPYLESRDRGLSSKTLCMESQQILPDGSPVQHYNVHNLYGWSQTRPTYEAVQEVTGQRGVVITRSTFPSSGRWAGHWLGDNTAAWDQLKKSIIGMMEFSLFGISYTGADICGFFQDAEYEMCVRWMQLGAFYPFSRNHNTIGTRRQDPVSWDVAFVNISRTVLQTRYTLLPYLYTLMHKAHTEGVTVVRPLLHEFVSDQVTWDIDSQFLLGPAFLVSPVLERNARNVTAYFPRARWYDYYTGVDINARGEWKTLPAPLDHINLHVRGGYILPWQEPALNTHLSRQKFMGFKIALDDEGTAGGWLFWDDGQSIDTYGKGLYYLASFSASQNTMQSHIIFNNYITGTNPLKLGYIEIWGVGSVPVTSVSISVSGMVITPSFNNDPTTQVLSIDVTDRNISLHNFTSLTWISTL
Sequence of Sterol O-acyltransferase 1 (Homo sapiens) (P35610 whole entry, looked up): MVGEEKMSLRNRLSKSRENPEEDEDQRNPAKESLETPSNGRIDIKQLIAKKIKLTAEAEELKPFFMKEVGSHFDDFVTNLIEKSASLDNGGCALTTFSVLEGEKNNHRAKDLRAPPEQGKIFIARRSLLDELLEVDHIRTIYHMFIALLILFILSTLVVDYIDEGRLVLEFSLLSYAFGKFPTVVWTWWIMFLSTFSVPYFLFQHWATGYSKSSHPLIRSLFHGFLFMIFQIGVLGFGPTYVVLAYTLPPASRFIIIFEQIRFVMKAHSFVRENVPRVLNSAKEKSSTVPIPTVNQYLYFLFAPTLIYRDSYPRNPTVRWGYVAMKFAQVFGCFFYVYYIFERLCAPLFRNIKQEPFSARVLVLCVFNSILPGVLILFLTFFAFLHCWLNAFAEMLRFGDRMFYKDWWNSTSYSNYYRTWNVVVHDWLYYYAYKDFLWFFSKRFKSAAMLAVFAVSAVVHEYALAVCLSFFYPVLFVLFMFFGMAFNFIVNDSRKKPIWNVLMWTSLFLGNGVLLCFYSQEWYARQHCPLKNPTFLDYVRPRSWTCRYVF

## COc1ccc2c(c1CC=C(C)C)OC1c3ccc(O)cc3OCC21 (centres undefined)
NCI-H187 [1]
  IC50: 5.37 µg/mL (≈ 15.9 µM)
Staphylococcus aureus [2]
  IC50: 4 µg/mL (≈ 11.8 µM)
Staphylococcus aureus [3]
  IC50: 4 µg/mL (≈ 11.8 µM)
KB [4]
  IC50: 12.5 µg/mL (≈ 37 µM)
MCF7
  IC50: 7.51 µg/mL (≈ 22.2 µM)

## CC(C)=CCc1c(O)ccc2c1O[C@H]1c3ccc(O)c(CC=C(C)C)c3OC[C@@H]21 [ERYBRAEDIN A]
NCI-H187 [5]
  IC50: 2.1 µg/mL (≈ 5.35 µM)
Streptococcus agalactiae
  MIC: 0.78 µg/mL (≈ 1.99 µM)
KB [6]
  IC50: 5.1 µg/mL (≈ 13 µM)
Enterococcus [7]
  MIC: 1.56 µg/mL (≈ 3.97 µM)
Plasmodium falciparum [8]
  IC50: 3.4 µg/mL (≈ 8.66 µM)
[9]
  IC50: 25 µg/mL (≈ 63.7 µM)
Enterococcus [10]
  MIC: 3.13 µg/mL (≈ 7.97 µM)
Breast carcinoma cell
  IC50: 2.9 µg/mL (≈ 7.39 µM)

## COc1ccc2c(c1CC=C(C)C)O[C@H]1c3ccc(O)cc3OCC21 (some centres undefined)
Staphylococcus aureus [2]
  IC50: 16 µg/mL (≈ 47.3 µM)
Staphylococcus aureus [3]
  IC50: 8 µg/mL (≈ 23.6 µM)
Candida albicans [11]
  MIC: 1.9 µg/mL (≈ 5.61 µM)
Plasmodium falciparum [12]
  IC50: 1.83 µg/mL (≈ 5.41 µM)
Candida albicans [13]
  MIC: 3.8 µg/mL (≈ 11.2 µM)

## COc1ccc2c(c1CC=C(C)C)O[C@H]1c3ccc(O)c(CC=C(C)C)c3OC[C@@]21O
Staphylococcus aureus [14]
  MIC50: 6.25 µM (≈ 2.64 µg/mL)

## Oc1cc2c(cc1O)[C@@H]1Oc3cc4c(cc3[C@@H]1CO2)OCO4
Candida albicans [15]
  MIC: 32 µg/mL (≈ 107 µM)

## CC(C)=CCc1c(O)ccc2c1O[C@H]1c3ccc(O)cc3OC[C@@H]21 [PHASEOLLIDIN]
NCI-H187 [5]
  IC50: 5.05 µg/mL (≈ 15.6 µM)
KB [6]
  IC50: 7.7 µg/mL (≈ 23.7 µM)
Plasmodium falciparum [16]
  IC50: 9.09 µg/mL (≈ 28 µM)
Plasmodium falciparum [12]
  IC50: 1.66 µg/mL (≈ 5.12 µM)
Breast carcinoma cell
  IC50: 14.3 µg/mL (≈ 44.1 µM)

## CC1(C)C=Cc2c(ccc3c2OC2c4ccc(O)cc4OCC32)O1 (centres undefined)
[17]
  inhibition: 67.4%
Maltase-glucoamylase
  IC50: 6 µM
[18]
  inhibition: 85.9%

## COc1c(CC=C(C)C)c(O)cc2c1[C@@H]1Oc3c(ccc(O)c3CC=C(C)C)[C@@H]1CO2
[19]
  MIC: 50 µg/mL (≈ 118 µM)
